Measured values published in patent US20260152501A1, “CYCLIN MODULATOR” (EUBULUS BIOTHERAPEUTICS (HONG KONG) LIMITED, priority 2022, published 2026).
Where two headings read alike, the source gives them in different places.

What was measured:
Assay type in all cases: cell-based
[1] = test system: Colo-205 cells; test: Cell proliferation experiment, Colo-205 cells; conditions: Cell Titer-Glo, read-out: Cell antiproliferation data Colo-205
Description: (§1) Reagents: RPMI-1640 medium, McCoy's 5A medium, IMDM medium, MEM medium, L-15 medium, fetal bovine serum, Penicillin-Streptomycin double antibody, trypsin, etc., 2-mercaptoethanol, NEAA, pyruvate, etc.
(§2) The test cells were cultured in conventional ways, and the cells should be passed for at least 2 generations before plating.
(§3) 25 μL of 1000 HT-29, N87, SKOV3, Colo-205 and MDA-MB-231 cells were inoculated in a 384-well plate with black wall and transparent bottom, 25 μL of different concentrations of compounds were added, and the cells were cultured overnight under condition of 37° C. and 5% CO2.
(§4) 25 μL of 1500 H82 and H69 cells were inoculated in a 384-well plate with black wall and transparent bottom, 25 μL of different concentrations of compounds were added, and the cells were cultured for 72 hours under condition of 37° C. and 5% CO2. The 384-well plate was equilibrated at room temperature, 25 μL of Cell Titer-Glo® reagent was added to each well, and the cells were lysed by shaking on a horizontal shaking shaker for 2 minutes, incubated at room temperature for 10 minutes to stabilize the luminescent signal, and then the chemiluminescent signal was detected using Envision.
(§5) All cells were subjected to IC50 test for corresponding samples.
(§6) The fluorescence intensity of each well was detected using the Alarm blue method, and EC50 was calculated.
(§7) IC50 was calculated according to the following formula:
(§8) [formula] • wherein, Min, Max and Slope represent the minimum, maximum and slope respectively.

[2] = test system: HT-29 cells; test: Cell proliferation experiment, HT-29 cells; conditions: Cell Titer-Glo, read-out: Cell antiproliferation data HT-29
Description: as §1, §2, §3, §4, §5, §6, §7, §8

[3] = test system: N87 cells; test: Cell proliferation experiment, N87 cells; conditions: Cell Titer-Glo, read-out: Cell antiproliferation data N87
Description: as §1, §2, §3, §4, §5, §6, §7, §8

[4] = test system: H69 cells; test: Cell proliferation experiment, H69 cells; conditions: cultured for 72 hours, Cell Titer-Glo, read-out: Cell antiproliferation data H69
Description: as §1, §2, §4
(§9) All cells were subjected to IC50 test for corresponding samples. […]
as §7, §8

[5] = test system: MDA-MB-231 cells; test: Cell proliferation experiment, MDA-MB-231 cells; conditions: Cell Titer-Glo, read-out: Cell antiproliferation data MDA-MB-231
Description: as §1, §2, §3, §4, §5, §6, §7, §8

[6] = test system: H82 cells; test: Cell proliferation experiment, H82 cells; conditions: Homo sapiens, NCI-H82, cultured for 72 hours, Cell Titer-Glo, read-out: Cell antiproliferation data H82
Description: as §1, §2, §4, §9, §7, §8

[7] = test system: SKOV3 cells; test: Cell proliferation experiment, SKOV3 cells; conditions: Cell Titer-Glo, read-out: Cell antiproliferation data SKOV3
Description: as §1, §2, §3, §4, §5, §6, §7, §8

[8] = test system: HepG2 cells; test: Antiproliferative effect on HepG2 cells; conditions: Homo sapiens
Description: as §1, §2, §5, §6, §7, §8

[9] = test system: Cyclin K; test: Immunohistochemistry (IHC) staining of Cyclin K in HepG2 cells; conditions: incubated with compound 2 hours, CCNK antibody
Description: Appropriate amount of compounds were added to the cultured cells. The cells were incubated in a tissue culture incubator at 37° C. for 2 hours.
After washing the cultured cells twice with PBS, 100 μL 10% neutral buffered formalin were added and the cells were fixed for 20 minutes.
After washing 3 times with PBS, immunohistochemical staining was performed using CCNK antibody and general two-step detection kit (mouse/rabbit enhanced polymer detection system, PV-9000, Zsbio Inc, Beijing).
Specifically, 100 μL of endogenous peroxidase blocker in the kit was added, cells were incubated at room temperature for 10 minutes; rinsed with PBS buffer for 3 minutes×3 times.
100 μL CCNK antibody 1:5000 dilution was added, and the cells were incubated at 37° C. for 60 minutes; rinsed with PBS buffer for 3 minutes×3 times.
100 μL reaction enhancer was added, and the cells were incubated at 37° C. for 20 minutes; rinsed with PBS buffer for 3 minutes×3 times.
100 μL enhanced enzyme-labeled goat anti-mouse/rabbit IgG polymer was added, and the cells were incubated at 37° C. for 20 minutes; rinsed with PBS buffer for 3 minutes×3 times.
The cells were placed in 75% ethanol, soaked for 3 minutes×2 times; placed in 95% ethanol, soaked for 3 minutes×2 times; after removing excess liquid, placed in anhydrous ethanol, soaked for 3 minutes×3 times; after removing excess liquid, air dried, observed under a microscope and taken pictures after sealing.

[10] = Homo sapiens, COLO 205, Colo-205 cells
[11] = Homo sapiens, SK-OV-3, SKOV3 cells

| Compound | IC50 [1, 10] [nM] | IC50 ([2]; Homo sapiens) [nM] | IC50 [3] [nM] | IC50 ([4]; Homo sapiens, NCI-H69, 72 h) [nM] | IC50 ([5]; Homo sapiens) [nM] | IC50 [6] [nM] | IC50 [7, 11] [nM] | IC50 [8] [nM] | Cyclin K IHC data of HepG2 cells [9] | also measured |
| --- | --- | --- | --- | --- | --- | --- | --- | --- | --- | --- |
| CCn1cnc2c(NCc3ccc(-c4cccc(CO)n4)cc3)nc(N3CCOCC3)nc21 [UB-001] | 100 to 300 | ≤ 100 | ≤ 100 | ≤ 100 | ≤ 100 | 100 to 300 |  |  |  |  |
| CCn1cnc2c(NCc3ccc(-c4cccc(CO)n4)cc3)nc(N3CCNCC3)nc21 [UB-002] | ≤ 100 | ≤ 100 | ≤ 100 | ≤ 100 | ≤ 100 | 100 to 300 |  |  |  |  |
| CCn1cnc2c(NCc3ccc(-c4cccc(CO)n4)cc3)nc(N3CCN(C)CC3)nc21 [UB-003] | ≤ 100 | ≤ 100 |  | 100 to 300 | ≤ 100 |  |  |  |  |  |
| CCn1cnc2c(NCc3ccc(-c4cccc(CO)c4)cc3)nc(N3CCNCC3)nc21 [UB-004] | 100 to 300 | ≤ 100 |  |  | ≤ 100 |  | 100 to 300 |  |  | IC50 [4]: > 300 nM |
| CCn1cnc2c(NCc3ccc(-c4cccc(CO)c4)cc3)nc(N3CCNCC3)nc21 [UB-005] |  |  | ≤ 100 |  |  | ≤ 100 |  |  |  | IC50 ([1]; Colo-205 cells): ≤ 100 nM; IC50 [2]: ≤ 100 nM; IC50 ([7]; SKOV3 cells): ≤ 100 nM; IC50 [4]: ≤ 100 nM; IC50 [5]: ≤ 100 nM |
| CCn1cnc2c(NCc3ccc(-c4ccccn4)cc3)nc(N[C@H]3CC[C@H](O)CC3)nc21 [UB-006] | ≤ 100 | ≤ 100 |  | > 300 | ≤ 100 |  | ≤ 100 |  |  |  |
| CC[C@H](CO)Nc1nc(NCc2ccc(-c3ccccc3)cc2)c2ncn(C(C)C)c2n1 [UB-007, (R)-2-((6-(([1,1′-biphenyl]-4-ylmethyl)amino)-9-isopropyl-9H-purin-2-yl)amino)butan-1-ol] | > 300 | 100 to 300 | 100 to 300 | > 300 | > 300 | 100 to 300 | > 300 |  |  |  |
| CC(C)n1cnc2c(NCc3ccc(-c4ccccc4)cc3)nc(N3CCCCC3)nc21 [UB-008, N-([1,1′-biphenyl]-4-ylmethyl)-9-isopropyl-2-(Piperidin-1-yl)-9H-purin-6-amine] | > 300 | > 300 | > 300 | > 300 | > 300 | > 300 | > 300 |  |  |  |
| CC(C)n1cnc2c(NCc3ccc(-c4ccccc4)cc3)nc(N3CCOCC3)nc21 [UB-009, N-([1,1′-biphenyl]-4-ylmethyl)-9-isopropyl-2-morpholino-9H-purin-6-amine] | > 300 | > 300 | > 300 | > 300 | > 300 | > 300 | > 300 |  |  |  |
| CC(C)n1cnc2c(NCc3ccc(-c4ccccc4)cc3)nc(N3CCNCC3)nc21 [UB-010, N-([1,1′-biphenyl]-4-ylmethyl)-9-isopropyl-2-(piperazin-1-yl)-9H-purin-6-amine] | ≤ 100 | ≤ 100 | ≤ 100 | 100 to 300 | ≤ 100 | ≤ 100 | ≤ 100 |  |  |  |
| CC(C)n1cnc2c(NCc3ccc(-c4ccccc4)cc3)nc(N3CCN(C)CC3)nc21 [UB-011, N-([1,l′-biphenyl]-4-ylmethyl)-9-isopropyl-2-(4-methylpiperazin-1-yl)-9H-purin-6-amine] | > 300 | 100 to 300 | 100 to 300 | > 300 | 100 to 300 | 100 to 300 | > 300 |  |  |  |
| CC(C)n1cnc2c(NCc3ccc(-c4ccccc4OCCO)cc3)nc(N3CCNCC3)nc21 [UB-047, 2-((4′-(((9-isopropyl-2-(piperazin-1-yl)-9H-purin-6-yl)amino)methyl)-[1,1′-biphenyl]-2-yl)oxy)ethan-1-ol] |  |  |  |  |  |  |  | 50 to 100 | D (D > 278 nM) |  |
| CC(C)n1cnc2c(NCc3ccc(-c4ccccc4OCCN)cc3)nc(N3CCNCC3)nc21 [UB-048, N-((2′-(2-aminoethoxy)-[1,1′-biphenyl]-4-yl)methyl)-9-isopropyl-2-(piperazin-1-yl)-9H-purin-6-amine] |  |  |  |  |  |  |  | > 300 | D (D > 278 nM) |  |
| CCCOc1ccccc1-c1ccc(CNc2nc(N3CCNCC3)nc3c2ncn3C(C)C)cc1 [UB-049, 9-isopropyl-2-(piperazin-1-yl)-N-((2′-propoxy-[1,1′-biphenyl]-4-yl)methyl)-9H-purin-6-amine] |  |  |  |  |  |  |  | 100 to 300 | D (D > 278 nM) |  |
| CC(C)n1cnc2c(NCc3ccc(-c4ccccc4OCCCCO)cc3)nc(N3CCNCC3)nc21 [UB-050, 4-((4′-(((9-isopropyl-2-(piperazin-1-yl)-9H-purin-6-yl)amino)methyl)-[1,1′-biphenyl]-2-yl)oxy)butan-1-ol] |  |  |  |  |  |  |  | 100 to 300 | D (D > 278 nM) |  |
| CC(C)n1cnc2c(NCc3ccc(-c4ccccc4OCCCC#N)cc3)nc(N3CCNCC3)nc21 [UB-051, 4-((4′-(((9-isopropyl-2-(piperazin-1-yl)-9H-purin-6-yl)amino)methyl)-[1,1′-biphenyl]-2-yl)oxy)butyronitrile] |  |  |  |  |  |  |  | 100 to 300 | D (D > 278 nM) |  |
| c1ccc(-c2ccc(CNc3nc(N4CCNCC4)nc4c3ncn4C3CCC3)cc2)cc1 [UB-052, N-([1,l′-biphenyl]-4-ylmethyl)-9-cyclobutyl-2-(piperazin-1-yl)-9H-purin-6-amine] |  |  |  |  |  |  |  | < 50 | C (93 nM < C <= 278 nM) |  |
| c1ccc(-c2ccc(CNc3nc(N4CCNCC4)nc4c3ncn4-c3ccccc3)cc2)cc1 [UB-053, N-([1,1′-biphenyl]-4-ylmethyl)-9-phenyl-2-(piperazin-1-yl)-9H-purin-6-amine] |  |  |  |  |  |  |  | > 300 | D (D > 278 nM) |  |
| Cn1cc(-n2cnc3c(NCc4ccc(-c5ccccc5)cc4)nc(N4CCNCC4)nc32)cn1 [UB-055, N-([1,1′-biphenyl]-4-ylmethyl)-9-(1-methyl-1H-pyrazol-4-yl)-2-(piperazin-1-yl)-9H-purin-6-amine] |  |  |  |  |  |  |  | > 300 | D (D > 278 nM) |  |
| CC(C)n1cnc2c(NCc3ccc(-c4ccccc4)cc3)nc(N[C@H]3C[C@H](N)C3)nc21 [UB-061, N6-([1,1′-biphenyl]-4-yl-methyl)-N2-((1r,3r)-3-aminocyclobutyl)-9-isopropyl-9H-purin-2,6-diamine] |  |  |  |  |  |  |  | < 50 | B (31 nM < B <= 93 nM) |  |
| CC(C)n1cnc2c(NCc3ccc(-c4ccccc4)c(OCCN)c3)nc(N3CCNCC3)nc21 [UB-062, N-((2-(2-aminoethoxy)-[1,l′-biphenyl]-4-yl)methyl)-9-isopropyl-2-(piperazin-1-yl)-9H-purin-6-amine] |  |  |  |  |  |  |  | > 300 | D (D > 278 nM) |  |
| CC(C)n1cnc2c(NCc3ccc(-c4ccccc4)c(OCCCC#N)c3)nc(N3CCNCC3)nc21 [UB-063, 4-((4-(((9-isopropyl-2-(piperazin-1-yl)-9H-purin-6-yl)amino)methyl)-[1,1′-biphenyl]-2-yl)oxy)butyronitrile] |  |  |  |  |  |  |  | 100 to 300 | D (D > 278 nM) |  |
